Drawing on patent US20230141403A1 (Hoffmann-La Roche Inc., priority 2020, published 2023), this text covers IC90 for 27 molecules.

Where a name gives a salt, the structure may show the parent alone.

The IC90 is the concentration at which the effect reaches the 90% level.

In the first experiment the test system is Acinetobacter baumannii ATCC17978. The experiment can be described thus: Antimicrobial susceptibility testing: 90% growth inhibitory concentration (IC90) determination. To be noted: ATCC17978, 90% growth inhibitory concentration, Iso-Sensitest broth, optical density at 600 nm over 16h, 35±2° C., read-out: AB ATCC 17978 IC90. The format is cell-based. The procedure: Antimicrobial Susceptibility Testing:
90% Growth Inhibitory Concentration (IC90) Determination
The in vitro antimicrobial activity of the compounds was determined according to the following procedure:
The assay used a 10-points Iso-Sensitest broth medium to measure quantitatively the in vitro activity of the compounds against Acinetobacter baumannii ATCC17961 or ATCC17978.
Stock compounds in DMSO were serially twofold diluted (e.g. range from 50 to 0.097 μM final concentration) in 384 wells microtiter plates and inoculated with 49 μl the bacterial suspension in Iso-Sensitest medium to have a final cell concentration of ˜5×10^(5) CFU/ml in a final volume/well of 50 ul/well. Microtiter plates were incubated at 35±2° C.
Bacterial cell growth was determined with the measurement of optical density at λ=600 nm each 20 minutes over a time course of 16h. Growth inhibition was calculated during the logarithmic growth of the bacterial cells with determination of the concentration inhibiting 50% (IC50) and 90% (IC90) of the growth.
Table 1 provides the 90% growth inhibitory concentrations (IC90) in micromoles per liter of the compounds of present invention obtained against the strain Acinetobacter baumannii ATCC17978.
As to `COc1ccc(-c2cnc3c(Nc4ccc(NC(=O)COCCN)cc4)nccn23)cc1Cl` [Example 14, 2-(2-aminoethoxy)-N-[4-[[3-(3-chloro-4-methoxy-phenyl)imidazo [1,2-a]pyrazin-8-yl]amino]phenyl] acetamide; 2,2,2-trifluoroacetic acid], the 90% effect concentration (IC90) came to 0.64 µM.
On to `CC(=O)Nc1ccc(Nc2nccn3c(-c4ccc(OC(F)F)c(Cl)c4)cnc23)cc1` [Example 41, N-(4-((3-(3-chloro-4-(difluoromethoxy)phenyl)imidazo[1,2-a]pyrazin-8-yl)amino)phenyl)acetamide], for which the IC90 was 0.52 µM.
On the same count and under the same terms, then `CC1CCC(=O)N1c1ccc(Nc2nccn3c(-c4ccc(OC(F)F)cc4)cnc23)cc1` (stereo not drawn) [Example 95, 1-(4-((3-(4-(difluoromethoxy)phenyl)imidazo[1,2-a]pyrazin-8-yl)amino)phenyl)-5-methylpyrrolidin-2-one], with 0.38 µM; and `COc1ccc(-c2cnc3c(Nc4ccc(NC(C)=O)c(C)c4)nccn23)c(Cl)c1` [Example 86, N-(4-((3-(2-chloro-4-methoxyphenyl)imidazo [1,2-a]pyrazin-8-yl)amino)-2-methylphenyl)acetamide], with 0.26 µM; and `COc1ccc(-c2cnc3c(Nc4ccc(N5CCCC5=O)cc4)nccn23)cc1Cl` [Example 9, 1-[4-[[3-(3-chloro-4-methoxy-phenyl)imidazo [1,2-a]pyrazin-8-yl]amino]phenyl] pyrrolidin-2-one; 2,2,2-trifluoroacetic acid], with 0.34 µM.
Take `COc1ccc(-c2cnc3c(Nc4ccc(S(C)(=O)=O)cc4)nccn23)cc1` [Example 52, 3-(4-Methoxyphenyl)-N-(4-(methylsulfonyl)phenyl)imidazo[1,2-a]pyrazin-8-amine]: the IC90 amounted to 0.98 µM.
Same read-out and setting: then `COc1ccc(-c2cnc3c(Nc4ccc(NC(=O)CN5CCNCC5)c(C)c4)nccn23)cc1Cl` [Example 49, N-(4-((3-(3-chloro-4-methoxyphenyl)imidazo[1,2-a]pyrazin-8-yl)amino)-2-methylphenyl)-2-(piperazin-1-yl)acetamide], with 0.3 µM; and `CC(=O)Nc1ccc(Nc2nccn3c(-c4ccc(OCC#N)cc4)cnc23)cc1C` [Example 88, N-(4-((3-(4-(cyanomethoxy)phenyl)imidazo[1,2-a]pyrazin-8-yl)amino)-2-methylphenyl) acetamide], with 0.33 µM.
Still for that read-out and setting: then `CC(=O)Nc1ccc(Nc2nccn3c(-c4ccc(Cl)cc4)cnc23)cc1` [Example 42, N-(4-((3-(4-chlorophenyl)imidazo[1,2-a]pyrazin-8-yl)amino)phenyl)acetamide], with 0.83 µM.
Same read-out and setting: then `COc1ccc(-c2cnc3c(Nc4ccc(N5CCCCC5=O)cc4)nccn23)cc1Cl` [Example 44, 1-(4-((3-(3-Chloro-4-methoxyphenyl)imidazo[1,2-a]pyrazin-8-yl)amino)phenyl)piperidin-2-one], with 0.26 µM; and `COc1ccc(-c2cnc3c(Nc4ccc(Cn5ccnc5)c(C)c4)nccn23)cc1` [Example 119, N-[4-(imidazol-1-ylmethyl)-3-methyl-phenyl]-3-(4-methoxyphenyl) imidazo[1,2-a]pyrazin-8-amine], with 0.37 µM; and `COc1ccc(-c2cnc3c(Nc4ccc(NC(=O)CO)cc4)nccn23)cc1Cl` [Example 10, N-[4-[[3-(3-chloro-4-methoxy-phenyl)imidazo [1,2-a]pyrazin-8-yl]amino]phenyl]-2-hydroxy-acetamide; 2,2,2-trifluoroacetic acid], with 0.82 µM.
With `COc1ccc(-c2cnc3c(Nc4ccc(NC(=O)CCl)cc4)nccn23)cc1` [Example 51, 2-chloro-N-(4-((3-(4-methoxyphenyl)imidazo[1,2-a]pyrazin-8-yl)amino)phenyl)acetamide], the IC90 was 0.75 µM.
As to `COCC(=O)Nc1ccc(Nc2nccn3c(-c4ccc(OC)cc4)cnc23)cc1` [Example 19, 2-Methoxy-N-{4-[3-(4-methoxy-phenyl)-imidazo[1,2-a]pyrazin-8-ylamino]-phenyl}-acetamide], the IC90 worked out at 0.77 µM.
Take `COc1ccc(-c2cnc3c(Nc4ccc(CO)c(C)c4)nccn23)cc1` [Example 120]: the IC90 was 0.74 µM.
Same read-out and setting: then `O=C1OCCN1c1ccc(Nc2nccn3c(-c4ccc(OC(F)F)cc4)cnc23)cc1` [Example 2, 3-[4-[[3-[4-(difluoromethoxy)phenyl]imidazo[1,2-a]pyrazin-8-yl]amino]phenyl]oxazolidin-2-one], with 0.25 µM; and `O=S1(=O)CCCN1c1ccc(Nc2nccn3c(-c4ccc(OC(F)F)cc4)cnc23)cc1` [Example 1, 3-[4-(difluoromethoxy)phenyl]-N-[4-(1,1-dioxo-1,2-thiazolidin-2-yl)phenyl]imidazo[1,2-a]pyrazin-8-amine], with 0.33 µM; and `COc1ccc(-c2cnc3c(Nc4ccc(Cn5ccnc5)cc4)nccn23)cc1` [Example 117, N-[4-(imidazol-1-ylmethyl)phenyl]-3-(4-methoxyphenyl)imidazo[1,2-a]pyrazin-8-amine], with 0.54 µM.
Same read-out and setting: then `CC(=O)Nc1ccc(Nc2nccn3c(-c4ccc(OC(F)F)cc4)cnc23)cc1C` [Example 40], with 0.13 µM.
As to `COc1ccc(-c2cnc3c(Nc4ccc(NC(C)=O)cc4)nccn23)cc1F` [Example 16, N-(4-((3-(3-fluoro-4-methoxyphenyl)imidazo[1,2-a]pyrazin-8-yl)amino)phenyl)acetamide], the IC90 worked out at 0.4 µM.
On the same count and under the same terms, then `COc1ccc(-c2cnc3c(Nc4ccc(S(=O)(=O)N5CCOCC5)cc4)nccn23)cc1` [Example 78, 3-(4-methoxyphenyl)-N-(4-(morpholinosulfonyl)phenyl)imidazo[1,2-a]pyrazin-8-amine], with 0.58 µM; and `COc1ccc(-c2cnc3c(Nc4ccc(NC(C)=O)c(Cl)c4)nccn23)cc1Cl` [Example 46, N-(2-chloro-4-((3-(3-chloro-4-methoxyphenyl)imidazo[1,2-a]pyrazin-8-yl)amino)phenyl)acetamide], with 0.89 µM; and `Cc1cc(Nc2nccn3c(-c4ccc(OC(F)F)c(F)c4)cnc23)ccc1N1CCCC1=O` [Example 56, 1-(4-((3-(4-(difluoromethoxy)-3-fluorophenyl)imidazo [1,2-a]pyrazin-8-yl)amino)-2-methylphenyl)pyrrolidin-2-one], with 0.25 µM.
Still for that read-out and setting: then `COc1ccc(-c2cnc3c(Nc4ccc(S(=O)(=O)N5CCN(C)CC5)cc4)nccn23)cc1` [Example 79, 3-(4-methoxyphenyl)-N-(4-((4-methylpiperazin-1 - yl)sulfonyl)phenyl) imidazo[1,2-a]pyrazin-8-amine], with 0.85 µM.
Still for that read-out and setting: then `CC(=O)Nc1ccc(Nc2nccn3c(-c4ccc(OC(F)F)cc4)cnc23)cc1` [Example 8, N-[4-[[3-[4-(difluoromethoxy)phenyl]imidazo [1,2-a]pyrazin-8-yl]amino]phenyl] acetamide], with 0.82 µM.

Staying with this experiment, now noted: ATCC17978, 16 h, read-out: AB ATCC 17978 IC90 (uM).
Regarding `CCc1cc(Nc2nccn3c(-c4ccc(OC)c(F)c4F)cnc23)ccc1NC(=O)CCN` [Example 93, 3-amino-N-(4-((3-(2,3-difluoro-4-methoxyphenyl)imidazo[1,2-a]pyrazin-8-yl)amino)-2-ethylphenyl)propanamide hydrochloride], the IC90 is 0.18 µM.
Same read-out and setting: then `COc1ccc(-c2cnc3c(Nc4ccc5c(c4)CCCC(=O)N5)nccn23)cc1F` [Example 5, 7-[[3-(3-fluoro-4-methoxy-phenyl)imidazo[1,2-a]pyrazin-8-yl]amino]-1,3,4,5-tetrahydro-1-benzazepin-2-one hydrochloride], with 0.88 µM.
